In patent US20210009542A1 (Calico Life Sciences LLC, priority 2018, published 2021):
Where two headings read alike, the source gives them in different places.

Tests used:
[1] = biological target: T1, His tagged PTPN2 (TC45) protein (Homo sapiens, UniProt P17706); assay: Mobility shift assay (MSA) for potency of PTPN2 inhibitors; assay type: biochemical; settings: read-out: PTPN2 MSA IC50
T1 construct: made in house
T1 sequence (P17706 with tags, fused parts or gaps isoform P17706-2): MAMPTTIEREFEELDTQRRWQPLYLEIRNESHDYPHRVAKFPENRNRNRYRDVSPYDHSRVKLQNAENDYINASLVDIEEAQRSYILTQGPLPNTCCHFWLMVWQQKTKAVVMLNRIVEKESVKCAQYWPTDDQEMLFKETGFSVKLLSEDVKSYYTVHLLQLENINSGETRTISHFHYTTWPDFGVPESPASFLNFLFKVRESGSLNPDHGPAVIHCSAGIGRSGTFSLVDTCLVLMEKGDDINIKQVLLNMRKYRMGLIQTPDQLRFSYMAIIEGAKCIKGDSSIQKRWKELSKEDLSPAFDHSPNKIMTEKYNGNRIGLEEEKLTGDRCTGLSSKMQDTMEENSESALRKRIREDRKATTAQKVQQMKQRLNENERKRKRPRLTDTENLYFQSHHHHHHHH
In short: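 His-tagged PTPN2 TC45 (0.5 nM) was preincubated with compound (12-point, 1:3) for 10 min at room temperature in 50 mM HEPES pH 7.5, 1 mM EGTA, 10 mM EDTA, 0.01% Tween 20, 2 mM DTT. OG488-labelled phospho-insulin-receptor peptide ([…]) was then added for 10 min. After quenching, dephosphorylation was measured by microfluidic mobility shift and IC50 derived from % inhibition.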

[2] = biological target: T2, His tagged full-length PTP1B protein (Homo sapiens, UniProt P18031); assay: Mobility shift assay (MSA) for potency of PTP1B inhibitors; assay type: biochemical
T2 construct: made in house
T2 sequence (P18031 with tags, fused parts or gaps): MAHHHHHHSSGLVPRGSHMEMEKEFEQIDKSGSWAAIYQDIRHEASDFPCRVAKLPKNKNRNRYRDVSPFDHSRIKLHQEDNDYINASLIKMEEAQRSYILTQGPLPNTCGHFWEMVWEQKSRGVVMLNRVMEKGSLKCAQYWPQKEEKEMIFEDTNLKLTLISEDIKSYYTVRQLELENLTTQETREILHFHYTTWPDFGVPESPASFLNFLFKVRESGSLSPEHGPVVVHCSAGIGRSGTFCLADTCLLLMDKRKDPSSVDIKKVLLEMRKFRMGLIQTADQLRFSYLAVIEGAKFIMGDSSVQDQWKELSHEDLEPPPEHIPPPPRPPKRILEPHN
Experimental: The enzymatic assay used to determine activity is a mobility shift assay using a LabChip EZ Reader by Caliper Life Sciences. The enzymatic reaction was carried out in assay buffer (50 mM HEPES pH 7.5, 1 mM EGTA, 10 mM EDTA, 0.01% Tween® 20, and 2 mM DTT). […] The enzyme (at 0.5 nM) was incubated with compound for 10 minutes at room temperature. […] The % inhibition was then used to calculate the IC50 values.

[3] = test system: B16F10 mouse melanoma cells; assay: B16F10 IFNγ-induced cellular growth inhibition assay; assay type: cell-based; settings: Mus musculus, B16-F10, 33 μM compound
In short: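 B16F10 cells (500/well, DMEM + 10% FBS) dosed in triplicate at 100 μM to 0.001 μM (0.1% DMSO) with or without 0.5 ng/mL final mouse IFNγ. Confluence imaged every 6 h for 5 days; % growth inhibition calculated versus DMSO/with-IFNγ control once DMSO/no-IFNγ wells exceeded 95% confluence.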

[4] = +0.5 ng/mL IFNγ, relative to DMSO control, read-out: % B16F10 growth inhibition (+0.5 ng/mL IFNγ) @ 33 μM
[5] = no IFNγ, read-out: % B16F10 growth inhibition (no IFNγ) @ 33 μM

| IC50 [2] [nM] | SMILES | IC50 [1] [nM] | inhibition at 33 µM [3, 4] [%] | inhibition at 33 µM [3, 5] [%] |
| --- | --- | --- | --- | --- |
| 10 to 100 | O=C1CN(c2c(O)cc3ccc(OC(CO)CCl)cc3c2F)S(=O)(=O)N1 (centres unmarked) [Compound 272, 5-{7-[(1-chloro-3-hydroxypropan-2-yl)oxy]-1-fluoro-3-hydroxynaphthalen-2-yl}-1λ^6,2,5-thiadiazolidine-1,1,3-trione] | 1 to 10 | – | – |
| 10 to 100 | O=C1CN(c2c(O)cc3ccc(C4CCCN4C(=O)C4CC4)cc3c2F)S(=O)(=O)N1 (centres unmarked) [Compound 187, 5-{7-[1-(cyclopropanecarbonyl)pyrrolidin-2-yl]-1-fluoro-3-hydroxynaphthalen-2-yl}-1λ^6,2,5-thiadiazolidine-1,1,3-trione] | 1 to 10 | – | – |
| > 100 | O=C1CN(c2c(O)cc3ccc(C4CCCOC4)cc3c2F)S(=O)(=O)N1 (centres unmarked) [Compound 249, 5-[1-fluoro-3-hydroxy-7-(oxan-3-yl)naphthalen-2-yl]-1λ^6,2,5-thiadiazolidine-1,1,3-trione] | 1 to 10 | 60 to 90 | < 25 |
| < 1 | CCCS(=O)(=O)N1CC=C(c2ccc3cc(O)c(N4CC(=O)NS4(=O)=O)c(F)c3c2)C1 [Compound 288] | < 1 | – | – |
| 1 to 10 | O=C1CN(c2c(O)cc3ccc(OCCC4CCNCC4)cc3c2F)S(=O)(=O)N1 [Compound 108, 5-{1-fluoro-3-hydroxy-7-[2-(piperidin-4-yl)ethoxy]naphthalen-2-yl}-1λ^6,2,5-thiadiazolidine-1,1,3-trione] | 1 to 10 | 25 to 59 | < 25 |
| 10 to 100 | O=C1CN(c2c(O)cc3ccc(C4CCCN4)cc3c2F)S(=O)(=O)N1 (centres unmarked) [Compound 258, 5-[1-fluoro-3-hydroxy-7-(pyrrolidin-2-yl)naphthalen-2-yl]-1λ^6,2,5-thiadiazolidine-1,1,3-trione] | 1 to 10 | – | – |
| 10 to 100 | CN(C)CCNc1ccc2cc(O)c(N3CC(=O)NS3(=O)=O)c(F)c2c1 [Compound 122, 5-(7-{[2-(dimethylamino)ethyl]amino}-1-fluoro-3-hydroxynaphthalen-2-yl)-1λ^6,2,5-thiadiazolidine-1,1,3-trione] | 10 to 100 | 60 to 90 | < 25 |
| < 1 | O=C1CN(c2c(O)cc3ccc(C4=CCN(S(=O)(=O)CC5CCCCO5)C4)cc3c2F)S(=O)(=O)N1 (centres unmarked) [Compound 289, 5-(1-fluoro-3-hydroxy-7-{1-[(oxan-2-yl)methanesulfonyl]-2,5-dihydro-1H-pyrrol-3-yl}naphthalen-2-yl)-1λ^6,2,5-thiadiazolidine-1,1,3-trione] | < 1 | – | – |
| 1 to 10 | O=C1CN(c2c(O)cc3ccc(OCCC4CCCO4)cc3c2F)S(=O)(=O)N1 (centres unmarked) [Compound 213, 5-{1-fluoro-3-hydroxy-7-[2-(oxolan-2-yl)ethoxy]naphthalen-2-yl}-1λ^6,2,5-thiadiazolidine-1,1,3-trione] | < 1 | 60 to 90 | < 25 |
| > 100 | CC(C)(C)CC1CCN(c2ccc3cc(O)c(N4CC(=O)NS4(=O)=O)c(F)c3c2)C1 (centres unmarked) [Compound 220, 5-{7-[3-(2,2-dimethylpropyl)pyrrolidin-1-yl]-1-fluoro-3-hydroxynaphthalen-2-yl}-1λ^6,2,5-thiadiazolidine-1,1,3-trione] | 10 to 100 | – | – |
| < 1 | O=C1CN(c2c(O)cc3ccc(C4=CCN(S(=O)(=O)CC5COCCO5)C4)cc3c2F)S(=O)(=O)N1 (centres unmarked) [Compound 292, 5-(7-{1-[(1,4-dioxan-2-yl)methanesulfonyl]-2,5-dihydro-1H-pyrrol-3-yl}-1-fluoro-3-hydroxynaphthalen-2-yl)-1λ^6,2,5-thiadiazolidine-1,1,3-trione] | < 1 | – | – |
| 10 to 100 | CC(O)COc1ccc2cc(O)c(N3CC(=O)NS3(=O)=O)c(F)c2c1 (centres unmarked) [Compound 135, 5-[1-fluoro-3-hydroxy-7-(2-hydroxypropoxy)naphthalen-2-yl]-1λ^6,2,5-thiadiazolidine-1,1,3-trione] | 1 to 10 | – | – |
| 10 to 100 | O=C1CN(c2c(O)cc3ccc(CC4CCNC4)cc3c2F)S(=O)(=O)N1 (centres unmarked) [Compound 262, 5-{1-fluoro-3-hydroxy-7-[(pyrrolidin-3-yl)methyl]naphthalen-2-yl}-1λ^6,2,5-thiadiazolidine-1,1,3-trione] | 1 to 10 | – | – |
| 10 to 100 | O=C1CN(c2c(O)cc3ccc([C@@H]4CCNC4)cc3c2F)S(=O)(=O)N1 (single isomer, unassigned) [Compound 232] | 1 to 10 | – | – |
| > 100 | O=C1CN(c2c(O)cc3ccc(C(CO)CCl)cc3c2F)S(=O)(=O)N1 (centres unmarked) [Compound 221, 5-[7-(1-chloro-3-hydroxypropan-2-yl)-1-fluoro-3-hydroxynaphthalen-2-yl]-1λ^6,2,5-thiadiazolidine-1,1,3-trione] | 10 to 100 | – | – |
| 10 to 100 | O=C1CN(c2c(O)cc3ccc(C4CCN(CC5CC5)C4)cc3c2F)S(=O)(=O)N1 (centres unmarked) [Compound 222, 5-{7-[1-(cyclopropylmethyl)pyrrolidin-3-yl]-1-fluoro-3-hydroxynaphthalen-2-yl}-1λ^6,2,5-thiadiazolidine-1,1,3-trione] | > 100 | – | – |
| 1 to 10 | CC(C)S(=O)(=O)N1CCC(c2ccc3cc(O)c(N4CC(=O)NS4(=O)=O)c(F)c3c2)C1 (centres unmarked) [Compound 308, 5-{1-fluoro-3-hydroxy-7-[1-(propane-2-sulfonyl)pyrrolidin-3-yl]naphthalen-2-yl}-1λ^6,2,5-thiadiazolidine-1,1,3-trione] | < 1 | – | – |
| 10 to 100 | CS(=O)(=O)N1CCC(COc2ccc3cc(O)c(N4CC(=O)NS4(=O)=O)c(F)c3c2)C1 (centres unmarked) [Compound 173, 5-(1-fluoro-3-hydroxy-7-{[1-(methanesulfonyl)pyrrolidin-3-yl]methoxy}naphthalen-2-yl)-1,2,5-thiadiazolidine-1,1,3-trione] | < 1 | – | – |
| 1 to 10 | O=C1CN(c2c(O)cc3ccc(C4=CCN(S(=O)(=O)C5CCOC5)C4)cc3c2F)S(=O)(=O)N1 (centres unmarked) [Compound 285, 5-{1-fluoro-3-hydroxy-7-[1-(oxolane-3-sulfonyl)-2,5-dihydro-1H-pyrrol-3-yl]naphthalen-2-yl}-1λ^6,2,5-thiadiazolidine-1,1,3-trione] | < 1 | – | – |
| 10 to 100 | CC(COc1ccc2cc(O)c(N3CC(=O)NS3(=O)=O)c(F)c2c1)C1CC1 (centres unmarked) [Compound 171, 5-[7-(2-cyclopropylpropoxy)-1-fluoro-3-hydroxynaphthalen-2-yl]-1λ^6,2,5-thiadiazolidine-1,1,3-trione] | < 1 | – | – |
| 10 to 100 | O=C1CN(c2c(O)cc3ccc(C4CCCN4S(=O)(=O)C4CC4)cc3c2F)S(=O)(=O)N1 (centres unmarked) [Compound 189, 5-{7-[1-(cyclopropanesulfonyl)pyrrolidin-2-yl]-1-fluoro-3-hydroxynaphthalen-2-yl}-1λ^6,2,5-thiadiazolidine-1,1,3-trione] | 1 to 10 | – | – |
| 10 to 100 | O=C1CN(c2c(O)cc3ccc([C@H]4CCNC4)cc3c2F)S(=O)(=O)N1 (single isomer, unassigned) [Compound 233] | 1 to 10 | – | – |
| 10 to 100 | O=C1CN(c2c(O)cc3ccc(C4CCCN(S(=O)(=O)C5CC5)C4)cc3c2F)S(=O)(=O)N1 (centres unmarked) [Compound 186, 5-{7-[1-(cyclopropanesulfonyl)piperidin-3-yl]-1-fluoro-3-hydroxynaphthalen-2-yl}-1λ^6,2,5-thiadiazolidine-1,1,3-trione] | 1 to 10 | – | – |
| < 1 | CCCC(C)S(=O)(=O)N1CC=C(c2ccc3cc(O)c(N4CC(=O)NS4(=O)=O)c(F)c3c2)C1 (centres unmarked) [Compound 294, 5-{1-fluoro-3-hydroxy-7-[1-(pentane-2-sulfonyl)-2,5-dihydro-1H-pyrrol-3-yl]naphthalen-2-yl}-1λ^6,2,5-thiadiazolidine-1,1,3-trione] | < 1 | – | – |
